From patent US7078556B2, “Antibiotics Cyan-416 A, Cyan-416 B, Cyan-416 C, Cyan-416 D and Cyan-416 E, and ester derivatives of Cyan-416 B” (Wyeth Holdings Corporation, priority 2002, dated 2006)
≈ marks a conversion by molar mass, not a printed value. Where two headings read alike, the source gives them in different places.

Columns and labels:
Test in all cases: MIC by broth dilution
Format in all cases: cell-based
[1] = tested on: Staphylococcus haemolyticus GC 4547; settings: GC4547, Table 2, 18 hours at 35° C.
Description: (§1) The minimum inhibitory concentration (MIC), the lowest concentration of the antibiotic which inhibits growth of the test organism, is determined by the broth dilution method using Muller-Hinton II […] (Baltimore Biological Laboratories) following the recommendations of the National Committee for Clinical Laboratory Standards [Methods for dilution antimicrobial susceptibility tests for bacteria that grow aerobically. Approved standard M7-A2. National Committee for Clinical Laboratory Standards, Villanova, Pa].
(§2) An inoculum level of 5×10^5 CFU/ml, and a range of antibiotic concentrations (64–0.06 μg/ml) is used. The MIC is determined after the microtiter plates are incubated for 18 hours at 35° C. in an ambient air incubator. The test organisms comprise a spectrum of the Gram-positive bacteria Staphylococcus aureus, Streptococcus pneumoniae, and Enterococcus sp., the Gram-negative bacteria Escherichia coli, and the yeast Candida albicans. These organisms include recent clinical isolates that are resistant to methicillin and vancomycin. MIC data of Cyan-416 A–E are listed in Table 1 and MIC data of ester derivatives of Cyan-416 B (Formula I) are listed in Table 2.

[2] = tested on: Enterococcus faecium GC 2243; settings: GC2243, Table 2, 18 hours at 35° C.
Description: as §1, §2

[3] = tested on: Staphylococcus aureus GC 2216
Description: as §1, §2

[4] = tested on: Streptococcus pneumoniae GC 1894; settings: GC1894, Table 2, 18 hours at 35° C.
Description: as §1, §2

[5] = tested on: Enterococcus faecium GC 4556; settings: GC4556, Table 2, 18 hours at 35° C.
Description: as §1, §2

[6] = tested on: Streptococcus pneumoniae GC 6242; settings: GC6242, Table 2, 18 hours at 35° C.
Description: as §1, §2

Candida albicans GC 3066 = settings: GC3066, 18 h
Description: as §1, §2

[7] = tested on: Staphylococcus aureus GC 4541; settings: GC4541, Table 2, 18 hours at 35° C.
Description: as §1, §2

[8] = tested on: Enterococcus faecalis GC 6189; settings: GC6189, Table 2, 18 hours at 35° C.
Description: as §1, §2

[9] = tested on: Staphylococcus aureus GC 1131
Description: as §1, §2

[10] = tested on: Enterococcus faecium 4558; settings: Table 2, 18 hours at 35° C.
Description: as §1, §2

[11] = tested on: Enterococcus faecalis GC 2242
Description: as §1, §2

[12] = tested on: Staphylococcus aureus GC 4543; settings: GC4543, Table 2, 18 hours at 35° C.
Description: as §1, §2

[13] = tested on: Staphylococcus aureus GC 4536; settings: GC4536, Table 1, 18 hours at 35° C.
Description: as §1, §2

[14] = tested on: Enterococcus faecalis GC 842; settings: GC842, Table 1, 18 hours at 35° C.
Description: as §1, §2

Escherichia coli GC 2203 = settings: GC2203, 18 h
Description: as §1, §2

[15] = tested on: Escherichia coli GC 4560 (imp)
Description: as §1, §2

[16] = tested on: Enterococcus faecalis GC 4555
Description: as §1, §2

[17] = tested on: Pseudomonas aeruginosa GC 2214; settings: GC2214, Table 1, 18 hours at 35° C.
[18] = GC2216, Table 1, 18 hours at 35° C., read-out: MIC
[19] = GC1131, Table 1, 18 hours at 35° C., read-out: MIC
[20] = GC2242, Table 1, 18 hours at 35° C., read-out: MIC
[21] = Table 1, Escherichia coli GC 2203, 18 hours at 35° C.
[22] = Table 2, Escherichia coli coli GC 2203, 18 hours at 35° C.
[23] = GC4555, Table 1, 18 hours at 35° C., read-out: MIC
[24] = GC2216, Table 2, 18 hours at 35° C., read-out: MIC
[25] = GC1131, Table 2, 18 hours at 35° C., read-out: MIC
[26] = GC2242, Table 2, 18 hours at 35° C., read-out: MIC
[27] = GC4555, Table 2, 18 hours at 35° C., read-out: MIC

Row | SMILES | MIC [1] [µg/mL] | MIC [2] [µg/mL] | MIC [3, 18] [µg/mL] | MIC [4] [µg/mL] | MIC [5] [µg/mL] | MIC [6] [µg/mL] | MIC (Candida albicans GC 3066; Table 1, 18 hours at 35° C.) [µg/mL] | MIC (Candida albicans GC 3066; Table 2, 18 hours at 35° C.) [µg/mL] | MIC [7] [µg/mL] | MIC [8] [µg/mL] | MIC [9, 19] [µg/mL] | MIC [10] [µg/mL] | MIC [11, 20] [µg/mL] | MIC [12] [µg/mL] | MIC [13] [µg/mL] | MIC [14] [µg/mL] | MIC (Escherichia coli GC 2203; [21]) [µg/mL] | MIC (Escherichia coli GC 2203; [22]) [µg/mL] | MIC ([15]; Escherichia coli, 18 h) [µg/mL] | MIC [16, 23] [µg/mL] | also measured
1 | COC(=O)c1c(O)ccc(O)c1C(=O)c1c(O)cc2c(c1O)[C@@H]1C=C[C@]3(C2)C(=C(O)c2c(O)cc(C)cc2[C@@H]3OC(C)=O)C1=O [Example 3a, Cyan-416 A] | 16 (≈ 26 µM) | 8 (≈ 13 µM) | 8 (≈ 13 µM) | 8 (≈ 13 µM) | 16 (≈ 26 µM) | 8 (≈ 13 µM) | > 64 | > 128 | 16 (≈ 26 µM) | 16 (≈ 26 µM) | 8 (≈ 13 µM) | 8 (≈ 13 µM) | 16 (≈ 26 µM) | 8 (≈ 13 µM) | 8 (≈ 13 µM) | 16 (≈ 26 µM) | > 64 | > 128 | 32 (≈ 52.1 µM) | 16 (≈ 26 µM) | MIC ([3]; Table 2, 18 hours at 35° C.): 8 µg/mL (≈ 13 µM); MIC ([9]; Table 2, 18 hours at 35° C.): 8 µg/mL (≈ 13 µM); MIC ([11]; Table 2, 18 hours at 35° C.): 16 µg/mL (≈ 26 µM); MIC ([15]; Table 2, Escherichia coli GC 4560 (imp), 18 hours at 35° C.): 32 µg/mL (≈ 52.1 µM); MIC ([16]; Table 2, 18 hours at 35° C.): 16 µg/mL (≈ 26 µM); MIC [17]: > 64 µg/mL
2 | COC(=O)c1c(O)ccc(O)c1C(=O)c1c(O)cc2c(c1O)[C@@H]1C=C[C@]3(C2)C(=C(O)c2c(O)cc(C)cc2[C@@H]3O)C1=O [Example 3b, Cyan-416 B] | – | – | 32 (≈ 55.9 µM) | – | – | – | > 64 | – | – | – | 32 (≈ 55.9 µM) | – | 32 (≈ 55.9 µM) | – | 32 (≈ 55.9 µM) | 64 (≈ 112 µM) | > 64 | – | 64 (≈ 112 µM) | 64 (≈ 112 µM) | MIC [17]: > 64 µg/mL
3 | COC(=O)c1c(O)ccc(O)c1C(=O)c1c(O)cc2c(c1O)[C@@H]1C=C[C@@]3(C2)[C@@H](OC(C)=O)c2cc(C)cc(O)c2C(=O)C3(O)C1=O (stereo partly shown) [Example 3c, Cyan-416 C] | – | – | 32 (≈ 50.7 µM) | – | – | – | > 64 | – | – | – | 32 (≈ 50.7 µM) | – | 32 (≈ 50.7 µM) | – | 32 (≈ 50.7 µM) | 32 (≈ 50.7 µM) | > 64 | – | > 64 | 64 (≈ 101 µM) | MIC [17]: > 64 µg/mL
4 | COC(=O)c1c(O)ccc(O)c1C(=O)c1c(O)cc(C)cc1O [Example 4a, Cyan-416 D] | – | – | 64 (≈ 201 µM) | – | – | – | > 64 | – | – | – | 64 (≈ 201 µM) | – | 32 (≈ 101 µM) | – | 64 (≈ 201 µM) | 64 (≈ 201 µM) | > 64 | – | 64 (≈ 201 µM) | 64 (≈ 201 µM) | MIC [17]: > 64 µg/mL
5 | COC(=O)c1c(O)ccc(O)c1C(=O)c1c(O)cc(C)c(Cc2c(C)cc(O)c(C(=O)c3c(O)ccc(O)c3C(=O)OC)c2O)c1O [Example 4b, Cyan-416 E] | – | – | 64 (≈ 98.7 µM) | – | – | – | 64 (≈ 98.7 µM) | – | – | – | 64 (≈ 98.7 µM) | – | 64 (≈ 98.7 µM) | – | 64 (≈ 98.7 µM) | 64 (≈ 98.7 µM) | > 64 | – | 64 (≈ 98.7 µM) | 64 (≈ 98.7 µM) | MIC [17]: 64 µg/mL (≈ 98.7 µM)
6 | CCCC(=O)O[C@H]1c2cc(C)cc(O)c2C(O)=C2C(=O)[C@H]3C=C[C@]21Cc1cc(O)c(C(=O)c2c(O)ccc(O)c2C(=O)OC)c(O)c13 [Example 6, Cyan-416 B butyrate] | 16 (≈ 24.9 µM) | 16 (≈ 24.9 µM) | – | 16 (≈ 24.9 µM) | 8 (≈ 12.4 µM) | 32 (≈ 49.8 µM) | – | > 128 | 8 (≈ 12.4 µM) | 16 (≈ 24.9 µM) | – | 8 (≈ 12.4 µM) | – | 8 (≈ 12.4 µM) | – | – | – | > 128 | 16 (≈ 24.9 µM) | – | MIC [3, 24]: 8 µg/mL (≈ 12.4 µM); MIC [9, 25]: 8 µg/mL (≈ 12.4 µM); MIC [11, 26]: 8 µg/mL (≈ 12.4 µM); MIC [16, 27]: 16 µg/mL (≈ 24.9 µM)
7 | COC(=O)c1c(O)ccc(O)c1C(=O)c1c(O)cc2c(c1O)[C@@H]1C=C[C@]3(C2)C(=C(O)c2c(O)cc(C)cc2[C@@H]3OC(=O)C(C)C)C1=O [Example 7, Cyan-416 B isobutyrate] | 4 (≈ 6.22 µM) | 8 (≈ 12.4 µM) | – | 8 (≈ 12.4 µM) | 4 (≈ 6.22 µM) | 16 (≈ 24.9 µM) | – | > 128 | 2 (≈ 3.11 µM) | 4 (≈ 6.22 µM) | – | 2 (≈ 3.11 µM) | – | 4 (≈ 6.22 µM) | – | – | – | > 128 | 8 (≈ 12.4 µM) | – | MIC [3, 24]: 4 µg/mL (≈ 6.22 µM); MIC [9, 25]: 4 µg/mL (≈ 6.22 µM); MIC [11, 26]: 4 µg/mL (≈ 6.22 µM); MIC [16, 27]: 4 µg/mL (≈ 6.22 µM)
8 | CCCCC(=O)O[C@H]1c2cc(C)cc(O)c2C(O)=C2C(=O)[C@H]3C=C[C@]21Cc1cc(O)c(C(=O)c2c(O)ccc(O)c2C(=O)OC)c(O)c13 [Example 8, Cyan-416 B pentanoate] | 4 (≈ 6.09 µM) | 4 (≈ 6.09 µM) | – | 8 (≈ 12.2 µM) | 4 (≈ 6.09 µM) | 8 (≈ 12.2 µM) | – | > 128 | 4 (≈ 6.09 µM) | 4 (≈ 6.09 µM) | – | 2 (≈ 3.05 µM) | – | 4 (≈ 6.09 µM) | – | – | – | > 128 | 8 (≈ 12.2 µM) | – | MIC [3, 24]: 4 µg/mL (≈ 6.09 µM); MIC [9, 25]: 4 µg/mL (≈ 6.09 µM); MIC [11, 26]: 4 µg/mL (≈ 6.09 µM); MIC [16, 27]: 4 µg/mL (≈ 6.09 µM)
9 | CCCCCC(=O)O[C@H]1c2cc(C)cc(O)c2C(O)=C2C(=O)[C@H]3C=C[C@]21Cc1cc(O)c(C(=O)c2c(O)ccc(O)c2C(=O)OC)c(O)c13 [Example 9, Cyan-416 B hexanoate] | 4 (≈ 5.96 µM) | 4 (≈ 5.96 µM) | – | 8 (≈ 11.9 µM) | 4 (≈ 5.96 µM) | 8 (≈ 11.9 µM) | – | > 128 | 4 (≈ 5.96 µM) | 4 (≈ 5.96 µM) | – | 2 (≈ 2.98 µM) | – | 4 (≈ 5.96 µM) | – | – | – | > 128 | 8 (≈ 11.9 µM) | – | MIC [3, 24]: 4 µg/mL (≈ 5.96 µM); MIC [9, 25]: 4 µg/mL (≈ 5.96 µM); MIC [11, 26]: 4 µg/mL (≈ 5.96 µM); MIC [16, 27]: 4 µg/mL (≈ 5.96 µM)
